One data set relates to NCI H358 (KRAS G12C). The data set can be described thus: 3D cell proliferation inhibition test (CellTiter-Glo 3D, 7 days), NCI H358. Format: cell-based. Conditions: Homo sapiens, NCI-H358, 168 h, read-out: Inhibitory activity on cell proliferation (IC50) NCI H358 (KRAS G12C). The method, then:
The diluted compounds to be tested were added to 384-well low-adhesion KRAS mutant types (such as GP2D, NCI H358, LoVo, RKN and KP2) of cell culture plates by using a nanoliter pipetting system (LABCYTE, P-0200). Then, the cells were plated and incubated in a 37°C, 5% CO2 incubator for 7 days. Afterward, CellTiter-Glo® 3D reagent was added, and the luminescent values were read by an Envision multifunctional microplate reader (the luminescent signal is proportional to the amount of ATP in the system, and the ATP content directly represents the number of viable cells in the system). Finally, the IC50 values (half-maximal inhibitory concentration) of the compounds were obtained by the XLFIT software using the nonlinear fitting formula.
• a) The diluted compounds to be tested were added to 384-well low-adhesion KRAS mutant types of cell culture plates by using a nanoliter pipetting system. • b) Cells were seeded into the 384-well plates in a) and then centrifuged at 1000 rpm for 1 min at room temperature, with a final DMSO concentration of compound being 0.5%. The plates were then incubated in a 5% CO2 constant-temperature incubator at 37°C for 7 days. • c) CellTiter-Glo® 3D was added to the 384-well cell culture plates in b), shaken in the dark, and incubated at room temperature. • d) The luminescence values were read by using an Envision multifunctional microplate reader. […]
(In ATP-based viability assays light output follows the ATP content of the culture.)

A short description of data set [1]: In vivo pharmacokinetic test in mice. Particulars: 30 mg/kg, female BALB/c mice, single dose 30 mg/kg, plasma. On the procedure:
Each test compound was administered orally once to female BALB/c mice for pharmacokinetic study. The test compounds were prepared on the day of administration. The oral administration solvent: 50 mM sodium citrate (pH 5.0) + 10% captisol. The oral administration was conducted in a dose of 30 mg/kg. The animals were fasted for 10-14 h before oral administration, and the feeding was resumed 4 h after administration. Pharmacokinetic samples were collected through the orbit. The collection time points were: 15 min, 30 min, 1 h, 2 h, 4 h, 6 h, 8 h and 24 h after administration. Three whole blood samples were collected at each time point, with a collection volume of about 0.2 mL, and anticoagulated with sodium heparin. After blood samples were collected, they were immediately placed on ice and centrifuged within 1 h to isolate plasma (centrifugation conditions: 8000 rpm, 1 min, 2-8°C). The collected plasma was stored in a -20°C refrigerator before analysis. The concentrations of compounds in the plasma samples were determined using an LC-MS/MS analysis method.

Data set [2] deals with human ovarian cancer RKN mouse xenograft tumors. The data set can be described thus: In vivo drug efficacy, RKN subcutaneous xenograft tumor model. Also on record: species or system Balb/c nude mice. Conditions: 50 mg/kg, PO; for inhibitory effects on human ovarian cancer RKN mouse xenograft tumors: BID, 28 days; for Tumor volume inhibition rate (TGI): RKN xenograft, BID × 28, day 28. The method, then: A subcutaneous xenograft tumor model of human ovarian cancer RKN (derived from uterine leiomyosarcoma) cells was established in Balb/c nude mice. RKN tumor cells resuspended in Ham's F12 medium were inoculated subcutaneously on the right side of the experimental animals at 5×10^6 + gel/0.1 mL. When the tumor grew to about 150-200 mm^3, 20 animals having relatively uniform tumor volumes were selected for group administration, with a total of 4 groups, 5 animals in each group. On the day of the experiment, the animals were given the corresponding drugs according to the groups. The first group G1 was set as a solvent group, and 50 mM citrate buffer (pH 5.0) + 10% Captisol was given by gavage alone. The second group G2 was given a 50 mM citrate buffer (pH 5.0) + 10% Captisol of compound 21. The third group G3 was given a 50 mM citrate buffer (pH 5.0) + 10% Captisol of compound 26. The fourth group G4 was given a 50mM citrate buffer (pH 5.0) + 10% Captisol of compound 31. Table 7: Study on effect of test substances on animal tumor size in the human ovarian cancer RKN mouse xenograft tumor model
During the experiment, the body weight and tumor size of the animals were measured twice a week, and the clinical symptoms of the animals were observed and recorded every day. Each drug administration was based on the most recent weighing of the animals.
The tumor was measured with a digital vernier caliper to measure the length (a) and width (b). The tumor volume (TV) was calculated using the following formula: TV = a × b^2 /2. [formula]
In general terms: Xenograft models place foreign cells or tissue in a host animal.

Where two headings read alike, the source gives them in different places.

For `CC1(O)COCCN(c2nc(OCC34CCCN3C(c3cc(F)c(F)c(F)c3)CC4)nc3c(F)c(-c4cccc5sc(N)c(C#N)c45)c(Br)cc23)C1` (single isomer, unassigned) [Example 26, 2-amino-4-[6-bromo-8-fluoro-4-(6-hydroxy-6-methyl-1,4-oxazepan-4-yl)-2-({[3-(3,4,5-trifluoropheny 1)-2,3,5,6,7,7a-hexahydro-1H-pyrrolizin-7a-yl]methyl}oxy)quinazolin-7-yl]benzo[b]thiophene-3-carb onitrile], the IC50 with NCI H358 (KRAS G12C) came out at 1.03 nM. The exposure (AUC) (as a rule, concentration integrated over time) in data set [1] (mouse, in vivo, po, read-out: AUC) was 15800 ng·h/mL. In data set [1] (mouse, in vivo, po, read-out: Cmax), the Cmax (as a rule, the highest concentration seen after dosing) was 4880 ng/mL. Besides, in data set [2], the “inhibitory effects on human ovarian cancer RKN mouse xenograft tumors” value is “significant inhibitory effects” and the “Tumor volume inhibition rate (TGI)” value is 116%.

With `CC1(O)COCCN(c2nc(OCC34CCCN3C(c3cc(F)c(F)c(F)c3)CC4)nc3c(F)c(-c4cccc5sc(N)c(C#N)c45)c(I)cc23)C1` (single isomer, unassigned) [Example 31, 2-amino-4-[6-iodo-8-fluoro-4-(6-hydroxy-6-methyl-1,4-oxazepan-4-yl)-2-({[3-(3,4,5-trifluorophenyl)-2,3,5,6,7,7a-hexahydro-1H-pyrrolizin-7a-yl]methyl}oxy)quinazolin-7-yl]benzo[b]thiophene-3-carbonitrile], in the data set on NCI H358 (KRAS G12C), the IC50 was determined as 0.69 nM. Moreover, in data set [1] (oral), the AUC is 20953 ng·h/mL and the Cmax was found to be 5124 ng/mL. Moreover, in data set [2], the “inhibitory effects on human ovarian cancer RKN mouse xenograft tumors” value is recorded as “significant inhibitory effects” and the “Tumor volume inhibition rate (TGI)” value was determined as 116%.

The values are drawn from patent publication EP4778933A1 (Chengdu Hyperway Pharmaceuticals Co., Ltd., priority 2023, dated 2025).
